According to paper PMC9312958, “A Novel and Selective Dopamine Transporter Inhibitor, (S)-MK-26, Promotes Hippocampal Synaptic Plasticity and Restores Effort-Related Motivational Dysfunctions” (Biomolecules, 2022):

Tested on: adult male Sprague Dawley rats
Experiment: PROG/chow feeding choice task
Type: in vivo, rat
Method: Pharmacological agents: (S)-MK-26 was obtained from the Lubec Laboratory (University of Vienna, Austria) and dissolved in dimethyl sulfoxide (DMSO) (10%), Tween 80 (15%), and 0.9% saline (75%). The DMSO/Tween 80/saline mixture was administered as the vehicle control. The dose range was selected as 3.75–45.0 mg/kg based on its DAT affinity and pilot studies. It was administered 30 min before testing. TBZ (9,10-dimethoxy3-(2-methylpropyl)-1,3,4,6,7, 11b hexahydrobenzo[a]quinolizin2-one) was obtained from Tocris Bioscience (Ellisville, MO) and was dissolved in DMSO (20%) and 0.9% saline (80%) and was titrated with 1.0 N HCl until the drug was dissolved at a pH of 4.0–4.5. The DMSO/saline solution with equal amounts of HCl was administered as the vehicle control. The selected dose was 1.0mg/kg based on the previous research from our laboratory. It was administered 120 min prior to testing. […]
Behavioral sessions were conducted in operant chambers (28 × 23 × 23 cm^3; Med Associates, Fairfax, VT) with 30 min sessions 5 days/week. […] The number of lever pressing was recorded and the amount of consumed chow was calculated by weighing the remaining food, including spillage. […]

[O-][S@@+](Cc1cncs1)C(c1cccc(Cl)c1)c1cccc(Cl)c1 [(S)-MK-26, (S)-5-(((B(3-chlorophenyl)methyl)sulphinyl)methyl)thiazole]
effect on PROG lever presses (45.0 mg/kg i.p. alone vs vehicle, p = 0.011): statistically significant difference between the vehicle and the highest dose | effect on chow intake (30.0 and 45.0 mg/kg i.p. alone vs vehicle): decreased chow intake
